# Where two headings read alike, the source gives them in different places.
# What was measured:
# [1] = tested on: compound 48/80-induced lethality; assay: Protection of rats from compound 48/80-induced lethality; type: in vivo, rats of an inbred Wistar strain; settings: Rattus norvegicus, 4 h, read-out: Compound 48/80 lethality test in rats ED50, s.c. or p.o. 1 h before compound 48/80 0.5 mg/kg i.v.; protection of 50% of animals, survival after 4 hours
# Outline: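 Male inbred Wistar rats (240-260 g), starved overnight, dosed subcutaneously or orally with compound or 0.9% NaCl before compound 48/80 challenge. Survival at 4 hours counted as protection. ED50 in mg/kg is the dose protecting 50% of animals from lethality.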
# [2] = tested on: effects of serotonin; assay: Antagonistic activity on the effects of serotonin in the gastric lesion test (lesions induced by compound 48/80); type: in vivo, rats of a Wistar inbred strain; settings: for ED50: Rattus norvegicus, po, read-out: gastric lesion test ED50
# Description: Antagonistic activity on the effects of serotonin in the gastric lesion test.
# The shock, followed by dead, can be avoided if the rats are pretreated with a classical H 1 antagonist.
# Male rats of a Wistar inbred strain, weighing 220-250 g, were starved overnight, water being available ad libitum. The test compounds were administered orally as a solution or as a suspension in aqueous medium. A control rat and a "blank" rat received the test compound. One hour later 5-[4-(diphenylmethyl)1-piperazinylmethyl]-1-methyl-1H-benzimidazole-2-methanol was administered subcutaneously to all rats at the dose of 2.5 mg/kg. […] Four hours after the intravenous injection of compound 48/80, the rats were decapitated and the stomachs were removed. Subsequently the stomachs were inspected for distension and contents (blood, fluid, food) and thoroughly rinsed. The macroscopic lesions were scored from 0 to +++, 0 corresponding to complete absence of visible lesions and the highest score corresponding to reddish rough patches covering more than half the glandular area.
# The second column of tables 1-4 show for a number of compounds of formula (I) the doses (in mg/kg body weight) at which the distension of the stomach as well as the lesions in the glandular area of the stomach are completely absent in 50% of the test rats (ED50 -value).
# [3] = compound 48/80 1 mg/kg i.v., distension and lesions of stomach completely absent in 50% of rats
Structure (SMILES),ED50 [1],"ED50 [2, 3]",further results
"Fc1ccc(Cn2c(CC3CCN(Cc4ccccc4)CC3)nc3ccccc32)cc1 [Compound 34, 1-[(4-fluorophenyl)methyl]-2-[[1-(phenylmethyl)-4-piperidinyl]methyl]-1H-benzimidazole]",0.04 mg/kg,0.63 mg/kg,
"Fc1ccc(Cn2c(CC3CCNCC3)nc3ccccc32)cc1 [Compound 47, 1-[(4-fluorophenyl)methyl]-2-(4-piperidinylmethyl)-1H-benzimidazole]",0.08 mg/kg,0.63 mg/kg,
CN1CCC(Cc2nc3ccccc3n2Cc2ccc(F)cc2)CC1 [Compound 82],0.005 mg/kg,0.63 mg/kg,
CN1CCC(Cc2nc3cccnc3n2Cc2ccc(F)cc2)CC1 [Compound 90],0.01 mg/kg,0.31 mg/kg,
CC(C)N1CCC(Cc2nc3ccccc3n2Cc2ccccc2)CC1 [Compound 94],0.08 mg/kg,0.63 mg/kg,
Fc1ccc(Cn2c(CC3CCN(C4CCCCC4)CC3)nc3ccccc32)cc1 [Compound 99],0.04 mg/kg,0.31 mg/kg,
Fc1ccc(Cn2c(CC3CCN(CCc4ccccn4)CC3)nc3cccnc32)cc1 [Compound 101],0.02 mg/kg,0.31 mg/kg,
"CC(=O)CCN1CCC(Cc2nc3ccccc3n2Cc2ccc(F)cc2)CC1 [Compound 102, 4-[4-[[1-[(4-fluorophenyl)methyl]-1H-benzimidazol-2-yl]methyl]-1-piperidinyl]-2-butanone]",0.02 mg/kg,0.31 mg/kg,
"Fc1ccc(Cn2c(CC3CCN(CCc4ccccn4)CC3)nc3ccccc32)cc1 [Compound 103, 1-[(4-fluorophenyl)methyl]-2-[[1-[2-(2-pyridinyl)ethyl]-4-piperidinyl]-methyl]-1H-benzimidazole]",0.005 mg/kg,0.16 mg/kg,
"OCCN1CCC(Cc2nc3ccccc3n2Cc2ccc(F)cc2)CC1 [Compound 107, 4-[[1-[(4-fluorophenyl)methyl]-1H-benzimidazol-2-yl]methyl]-1-piperidineethanol]",0.04 mg/kg,,ED50 [2]: 0.08 mg/kg
"Fc1ccc(Cn2c(CC3CCN(CCc4cccs4)CC3)nc3ccccc32)cc1 [Compound 118, 1-[(4-fluorophenyl)methyl]-2-[[1-[2-(2-thienyl)ethyl]-4-piperidinyl]-methyl]-1H-benzimidazole]",0.04 mg/kg,0.63 mg/kg,
Fc1ccc(Cn2c(CC3CCN(CCN4CCOCC4)CC3)nc3cccnc32)cc1 [Compound 124],0.04 mg/kg,0.31 mg/kg,
CCOCCN1CCC(Cc2nc3cccnc3n2Cc2ccc(F)cc2)CC1 [Compound 126],0.04 mg/kg,0.63 mg/kg,
O=C(CCCN1CCC(Cc2nc3cccnc3n2Cc2ccc(F)cc2)CC1)c1ccc(F)cc1 [Compound 127],0.08 mg/kg,,"gastric lesion test ED50 ([2]; oral, compound 48/80 1 mg/kg i.v., distension and lesions of stomach completely absent in 50% of rats, 1 mg/kg): 0.63 mg/kg body weight"
"O=C(NCCN1CCC(Cc2nc3ccccc3n2Cc2ccc(F)cc2)CC1)c1cc(O)c2ccccc2n1 [Compound 444, N-[2-[4-[[1-[(4-fluorophenyl)methyl]-1H-benzimidazol-2-yl]methyl]-1-piperidinyl]ethyl]-4-hydroxy-2-quinolinecarboxamide]",0.16 mg/kg,,
"O=C(NCCN1CCC(Cc2nc3ccccc3n2Cc2ccc(F)cc2)CC1)c1cc2ccccc2oc1=O [Compound 445, N-[2-[4-[[1-[(4-fluorophenyl)methyl]-1H-benzimidazol-2-yl]methyl]-1-piperidinyl]ethyl]-2-oxo-2H-1-benzopyran-3-carboxamide]",0.16 mg/kg,,
"Cn1ccnc1NCCN1CCC(Cc2nc3ccccc3n2Cc2ccc(F)cc2)CC1 [Compound 452, 4-[[1-[(4-fluorophenyl)methyl]-1H-benzimidazol-2-yl]methyl]-N-(1-methyl-1H-imidazol-2-yl)-1-piperidineethanamine]",0.16 mg/kg,,
"Cc1nc(CCN2CCC(Cc3nc4ccccc4n3Cc3ccc(F)cc3)CC2)cs1 [Compound 459, 1-[(4-fluorophenyl)methyl]-2-[[1-[2-(2-methyl-4-thiazolyl)ethyl]-4-piperidinyl]methyl]-1H-benzimidazole]",0.02 mg/kg,,
"O=c1c2ccccc2[nH]c(=S)n1CCN1CCC(Cc2nc3cccnc3n2Cc2ccc(F)cc2)CC1 [Compound 463, 3-[2-[4-[[3-[(4-fluorophenyl)methyl]-3H-imidazo[4,5-b]pyridin-2-yl]methyl]-1-piperidinyl]ethyl]-2,3-dihydro-2-thioxo-4(1H)quinazolinone]",0.08 mg/kg,,

Structure (SMILES),ED50 [1],"ED50 [2, 3]",further results
"Nc1ccccc1C(=O)NCCN1CCC(Cc2nc3ccccc3n2Cc2ccco2)CC1 [Compound 466, 2-amino-N-[2-[4-[[1-(2-furanylmethyl)-1H-benzimidazol-2-yl]methyl]-1-piperidinyl]ethyl]benzamide]",0.02 mg/kg,,
CNc1ccccc1C(=O)NCCN1CCC(Cc2nc3cccnc3n2Cc2ccc(F)cc2)CC1 [Compound 470],0.04 mg/kg,,
"Nc1ccccc1C(=O)NCCCCN1CCC(Cc2nc3ccccc3n2Cc2ccco2)CC1 [Compound 472, 2-amino-N-[4-[4-[[1-(2-furanylmethyl)-1H-benzimidazol-2-yl]methyl]-1-piperidinyl]butyl]benzamide]",0.04 mg/kg,,
"Nc1ccccc1C(=O)NCCN1CCC(Cc2nc3cccnc3n2Cc2ccco2)CC1 [Compound 473, 2-amino-N-[2-[4-[[3-(2-furanylmethyl)-3H-imidazo[4,5-b]pyridin-2-yl]methyl]-1-piperidinyl]ethyl]benzamide]",0.02 mg/kg,,
"CC1(C)Nc2ccccc2C(=O)N1CCN1CCC(Cc2nc3cccnc3n2Cc2ccccn2)CC1 [Compound 479, 2,3-dihydro-2,2-dimethyl-3-[2-[4-[[3-(2-pyridinylmethyl)-3H-imidazo[4,5-b]-pyridin-2-yl]methyl]-1-piperidinyl]ethyl]-4(1H)-quinazolinone]",0.04 mg/kg,,
"Nc1ccccc1C(=O)NCCN1CCC(Oc2nc3ccccc3n2Cc2ccc(F)cc2)CC1 [Compound 480, 2-amino-N-[2-[4-[[1-[(4-fluorophenyl)methyl]-1H-benzimidazol-2-yl]oxy]-1-piperidinyl]ethyl]benzamide]",0.02 mg/kg,,
"O=c1[nH]c2ccccc2c(=O)n1CCCCN1CCC(Cc2nc3ccccc3n2Cc2ccco2)CC1 [Compound 490, 3-[4-[4-[[1-(2-furanylmethyl)-1H-benzimidazol-2-yl]methyl]-1-piperidinyl]butyl]-2,4(1H,3H)-quinazolinedione]",0.31 mg/kg,,
"O=c1[nH]c2ccccc2c(=O)n1CCCCN1CCC(Cc2nc3cccnc3n2Cc2ccco2)CC1 [Compound 491, 3-[4-[4-[[3-(2-furanylmethyl)-3H-imidazo[4,5-b]pyridin-2-yl]methyl]-1-piperidinyl]butyl]-2,4-(1H,3H)-quinazolinedione]",0.16 mg/kg,,
"Fc1ccc(Cn2c(CC3CCN(CCNc4cccnn4)CC3)nc3ccccc32)cc1 [Compound 500, N-[2-[4-[[1-[(4-fluorophenyl)methyl]-1H-benzimidazol-2-yl]methyl]-1-piperidinyl]ethyl]-3-pyridazinamine]",0.01 mg/kg,,
Fc1ccc(Cn2c(CC3CCN(CCNc4ccncn4)CC3)nc3ccccc32)cc1 [Compound 501],0.04 mg/kg,,
"CSc1nc2cncnc2n1CCN1CCC(Cc2nc3ccccc3n2Cc2ccc(F)cc2)CC1 [Compound 507, 9-[2-[4-[[1-[(4-fluorophenyl)methyl]-1H-benzimidazol-2-yl]methyl]-1-piperidinyl]ethyl]-8-(methylthio)-9H-purine]",0.16 mg/kg,,
"O=C(c1ccco1)N(CCN1CCC(Cc2nc3ccccc3n2Cc2ccco2)CC1)c1ncccn1 [Compound 509, N-[2-[4-[[1-(2-furanylmethyl)-1H-benzimidazol-2-yl]methyl]-1-piperidinyl]-ethyl]-N-(2-pyrimidinyl)-2-furancarboxamide]",0.02 mg/kg,,
CC(=O)N(C)c1ccccc1C(=O)NCCN1CCC(Cc2nc3ccccc3n2Cc2ccco2)CC1 [Compound 511],0.16 mg/kg,,
CN(CCN1CCC(Cc2nc3ccccc3n2Cc2ccc(F)cc2)CC1)Cc1ccccc1 [Compound 512],0.08 mg/kg,,
"CNCCN1CCC(Cc2nc3ccccc3n2Cc2ccc(F)cc2)CC1 [Compound 513, 4[[1-[(4-fluorophenyl)methyl]-1H-benzimidazol-2-yl]methyl]-N-methyl-1-piperidineethanamine]",0.08 mg/kg,,
"COc1ccc(CCN2CCC(Cc3nc4ccccc4n3Cc3ccccc3F)CC2)cc1 [Compound 515, 1-[(2-fluorophenyl)methyl]-2-[[1-[2-(4-methoxyphenyl)ethyl]-4-piperidinyl]-methyl]-1H-benzimidazole]",0.16 mg/kg,,
"COc1ccc(CCN2CCC(Cc3nc4ccccc4n3CCc3ccccc3)CC2)cc1 [Compound 516, 2-[[1-[2-(4-methoxyphenyl)ethyl]-4-piperidinyl]methyl]-1-(2-phenylethyl)-1H-benzimidazole]",0.16 mg/kg,,
"COc1ccc(CCN2CCC(Cc3nc4ccccc4n3Cc3cnccn3)CC2)cc1 [Compound 524, 2-[[1-[2-(4-methoxyphenyl)ethyl]-4-piperidinyl]methyl]-1-(2-pyrazinylmethyl)-1H-benzimidazole]",0.16 mg/kg,,

# Source: patent US4839374A, “4-((Bicyclic heterocyclyl)-methyl and -hetero)-piperidines” (Janssen Pharmaceutica, N.V., priority 1987, dated 1989)
